In patent US8420820B2, “Pyrrolopyridinylpyrimidin-2-ylamine derivatives” (Merck Patent GmbH, priority 2008, dated 2013):

Assays:
PDK1 = target: T1, PDK1 (Homo sapiens, UniProt O15530); assay: Test for the inhibition of PDK1 (flashplate, 33P-ATP); type: biochemical; details: His6-PDK1 3.4 nM, 4 μM ATP, 30° C., 60 min
T1 construct: His6 (N)
Method: The experimental batches are carried out in a flashplate system with 384 wells/microtitration plate.
In each case, the PDK1 sample His6-PDK1(SEQ ID NO: 2)(1-50)(3.4 nM), the PDK1 substrate biotin-bA-bA-[…] (SEQ ID NO: 3) (400 nM), 4 μM ATP (with 0.2 μCi of ^33P-ATP/well) and the test substance in 50 μl of conventional experimental solution per well are incubated at 30° C. for 60 min. The test substances are employed in corresponding concentrations (if desired in a dilution series). The control is carried out without test substance. The reaction is stopped using standard methods and washed. The activity of the kinase is measured via the incorporated radioactivity in top count. In order to determine the non-specific kinase reaction (blank value), the experimental batches are carried out in the presence of 100 nM staurosporin.
The radioactivity (decompositions per minute) of the blank value (no use of test substance in the presence of staurosporin) is subtracted from all other radioactivity values. The controls (kinase activity without test substance) are set equal to 100 percent and all other radioactivity values (after subtracting the blank value) are expressed set in relation thereto (for example in % of the control).
IC50 values (50% inhibition) are determined with the aid of statistics programmes, such as, for example, RS1.

[1] = system: PDK1 kinase activity in PC3 cells (phospho-T308-PKB); assay: Cellular testing of PDK1 kinase inhibitors in PC3 cells (Luminex, phospho-T308-PKB); type: cell-based; details: Homo sapiens, PC-3, 0.5 h, 30 min with test substance, serum-free, phospho-T308-PKB by Luminex, read-out: IC50 [PC3 P-PKB Thr308]
Method: Method for the Cellular Testing of PDK1 Kinase Inhibitors in PC3 Cells.
The cellular assay for the determination of the PDK1 kinase activity is carried out as a Luminex assay in the 96-well format. PC3 cells are sown at 20,000 cells per well in 100 μl of medium (45% of […]/45% of Ham's F12/10% of FCS) and incubated on the following day for 30 min with a serial dilution of the test substance (7 concentrations) under serum-free conditions. The cells are subsequently lysed using 90 μl of lysis buffer (20 mM tris/HCl pH 8.0, 150 mM NaCl, 1% of NP40, 10% of glycerol, 1% of phosphatase inhibitor I, 1% of phosphatase inhibitor II, 0.1% of protease inhibitor cocktail III, 0.01% of benzonase) per well, and the lysates are separated off from insoluble cell constituents by means of centrifugation through a 96-well filter plate (0.65 μm). The lysates are incubated overnight at 4° C. with shaking with Luminex beads to which an anti-total PKB antibody is coupled. The detection is carried out on the following day by addition of a phospho-T308-PKB antibody and a species-specific […] secondary antibody. The detection of phospho-T308-PKB is carried out by measurement in a Luminex100 instrument by determination of 100 events per cavity in a measurement time of 60 sec. As pharmacological blank, the signals obtained from cells which have been treated with 10 μM staurosporin are subtracted from all other batches. The control value used for maximum phosphorylation of PKB on T308 are the signals from cells which have only been treated with the solvent (0.3% of DMSO). The values of the batches treated with test substance are calculated therefrom as percentage of control, and IC50 values are determined by means of RS1.

T1 sequence (O15530 51-556): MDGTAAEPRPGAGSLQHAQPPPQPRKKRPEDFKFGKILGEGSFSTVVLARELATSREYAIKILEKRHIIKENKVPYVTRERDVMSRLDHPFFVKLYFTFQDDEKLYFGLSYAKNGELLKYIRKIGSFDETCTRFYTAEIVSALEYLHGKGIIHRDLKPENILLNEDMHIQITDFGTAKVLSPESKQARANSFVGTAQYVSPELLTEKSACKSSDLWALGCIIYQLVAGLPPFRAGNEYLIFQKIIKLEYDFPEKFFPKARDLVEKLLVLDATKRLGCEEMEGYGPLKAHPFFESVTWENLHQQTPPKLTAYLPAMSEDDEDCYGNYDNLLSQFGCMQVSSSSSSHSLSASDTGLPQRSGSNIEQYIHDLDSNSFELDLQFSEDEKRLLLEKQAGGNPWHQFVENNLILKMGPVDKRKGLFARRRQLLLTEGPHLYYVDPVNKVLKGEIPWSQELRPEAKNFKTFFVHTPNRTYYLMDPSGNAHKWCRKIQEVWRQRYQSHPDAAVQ

Compound | IC50 (PDK1) [nM] | IC50 [1] [nM]
CCc1cc(-c2c[nH]c3ncc(-c4ccc(N5CCNCC5)nc4)cc23)nc(N)n1 [Compound A10, 4-ethyl-6-[5-(6-piperazin-1-ylpyridin-3-yl)-1H-pyrrolo[2,3-b]pyridin-3-yl]pyrimidin-2-ylamine] | 10 to 1000 | 1000 to 10000
CCc1cc(-c2c[nH]c3ncc(-c4cccc(C(=O)NCCN(C)C)c4)cc23)nc(N)n1 [Compound A11, 3-[3-(2-amino-6-ethylpyrimidin-4-yl)-1H-pyrrolo-[2,3-b]pyridin-5-yl]-N-(2-dimethylaminoethyl)benzamide] | 10 to 1000 | 10000 to 20000
Nc1nc(CCCCO)cc(-c2c[nH]c3ncccc23)n1 [Compound A45, 4-[2-Amino-6-(1H-pyrrolo[2,3-b]pyridin-3-yl)pyrimidin-4-yl]butan-1-ol] | 1000 to 10000 | 
CCc1cc(-c2c[nH]c3ncc(-c4cn[nH]c4)cc23)nc(NC)n1 [Compound A62, {4-Ethyl-6-[5-(1H-pyrazol-4-yl)-1H-pyrrolo[2,3-b]pyridin-3-yl]pyrimidin-2-yl}-methylamine] | 10 to 1000 | 
CCc1cc(-c2c[nH]c3ncc(-c4cnn(C5CCNCC5)c4)cc23)nc(NC)n1 [Compound A64, {4-Ethyl-6-[5-(1-piperidin-4-yl-1H-pyrazol-4-yl)-1H-pyrrolo[2,3-b]pyridin-3-yl]pyrimidin-2-yl}methylamine] | 10 to 1000 | 
CCCCc1cc(-c2c[nH]c3ncc(-c4cnn(C5CCNCC5)c4)cc23)nc(NC)n1 [Compound A70, {4-Butyl-6-[5-(1-piperidin-4-yl-1H-pyrazol-4-yl)-1H-pyrrolo[2,3-b]pyridin-3-yl]pyrimidin-2-yl}methylamine] | 10 to 1000 | 
CCCCc1cc(-c2c[nH]c3ncc(-c4cnn(C5CCN(C)CC5)c4)cc23)nc(NC)n1 [Compound A71, (4-Butyl-6-{5-[1-(1-methylpiperidin-4-yl)-1H-pyrazol-4-yl]-1H-pyrrolo[2,3-b]-pyridin-3-yl}pyrimidin-2-yl)methylamine] | 10 to 1000 | 
CCc1cc(-c2c[nH]c3ncc(-c4cnn(C(C)C(=O)Nc5ccc6[nH]ccc6c5)c4)cc23)nc(NC)n1 (stereo not drawn) [Compound A72, 2-{4-[3-(6-Ethyl-2-methylaminopyrimidin-4-yl)-1H-pyrrolo[2,3-b]pyridin-5-yl]-pyrazol-1-yl}-N-(1H-indol-5-yl)propionamide] | 10 to 1000 | 
CCc1cc(-c2c[nH]c3ncc(-c4cnn(CC(=O)N5CCCc6ccccc65)c4)cc23)nc(NC)n1 [Compound A73, 1-(3,4-Dihydro-2H-quinolin-1-yl)-2-{4-[3-(6-ethyl-2-methylaminopyrimidin-4-yl)-1H-pyrrolo[2,3-b]pyridin-5-yl]pyrazol-1-yl}ethanone] | 10 to 1000 | 
COc1nc(Cc2ccccc2)cc(-c2c[nH]c3ncc(-c4cnn(C(C)C)c4)cc23)n1 [Compound A74, 3-(6-Benzyl-2-methoxypyrimidin-4-yl)-5-(1-isopropyl-1H-pyrazol-4-yl)-1H-pyrrolo[2,3-b]pyridine] | 1000 to 10000 | 
Nc1nc(CCC(=O)N2CCOCC2)cc(-c2c[nH]c3ncccc23)n1 [Compound A82, 3-[2-Amino-6-(1H-pyrrolo[2,3-b]pyridin-3-yl)pyrimidin-4-yl]-1-morpholin-4-ylpropan-1-one] | 1000 to 10000 | 
CN(C)CCNC(=O)CCc1cc(-c2c[nH]c3ncccc23)nc(N)n1 [Compound A83, 3-[2-Amino-6-(1H-pyrrolo[2,3-b]pyridin-3-yl)pyrimidin-4-yl]-N-(2-dimethylaminoethyl)propionamide] | 1000 to 10000 | 

Further lines, results first:

IC50 (PDK1) [nM] | IC50 [1] [nM] | Compound
10 to 1000 | 10000 to 20000 | CCc1cc(-c2c[nH]c3ncc(-c4cnn(CCN(C)C)c4)cc23)nc(N)n1 [Compound A1, 4-{5-[1-(2-dimethylaminoethyl)-1H-pyrazol-4-yl]-1H-pyrrolo[2,3-b]pyridin-3-yl}-6-ethylpyrimidin-2-ylamine]
10 to 1000 | 10000 to 20000 | CCc1cc(-c2c[nH]c3ncc(-c4cnn(CC5CCNC5)c4)cc23)nc(N)n1 (stereo not drawn) [Compound A9]
10 to 1000 | 10000 to 20000 | CCc1cc(-c2c[nH]c3ncc(-c4cnn(CC(=O)N5CCN(C)CC5)c4)cc23)nc(N)n1 [Compound A29, 2-{4-[3-(2-Amino-6-ethylpyrimidin-4-yl)-1H-pyrrolo[2,3-b]pyridin-5-yl]pyrazol-1-yl}-1-(4-methylpiperazin-1-yl)ethanone]
10 to 1000 | 10000 to 20000 | CCc1cc(-c2c[nH]c3ncc(-c4cnn(CC(=O)NC5CCN(C)CC5)c4)cc23)nc(N)n1 [Compound A30, 2-{4-[3-(2-Amino-6-ethylpyrimidin-4-yl)-1H-pyrrolo[2,3-b]pyridin-5-yl]pyrazol-1-yl}-N-(1-methylpiperidin-4-yl)acetamide]
10 to 1000 | 10000 to 20000 | CCc1cc(-c2c[nH]c3ncc(-c4cnn(CC(=O)O)c4)cc23)nc(N)n1 [Compound A31, {4-[3-(2-Amino-6-ethylpyrimidin-4-yl)-1H-pyrrolo[2,3-b]pyridin-5-yl]pyrazol-1-yl}acetylic acid]
10 to 1000 |  | CCc1cc(-c2c[nH]c3ncc(-c4cnn(C(C)C)c4)cc23)nc(NC)n1 [Compound A60, {4-Ethyl-6-[5-(1-isopropyl-1H-pyrazol-4-yl)-1H-pyrrolo[2,3-b]pyridin-3-yl]-pyrimidin-2-yl}methylamine]
10 to 1000 |  | CCc1cc(-c2c[nH]c3ncc(-c4cnn(CCN(C)C)c4)cc23)nc(NC)n1 [Compound A61, (4-{5-[1-(2-Dimethylaminoethyl)-1H-pyrazol-4-yl]-1H-pyrrolo[2,3-b]pyridin-3-yl}-6-ethylpyrimidin-2-yl)methylamine]
10 to 1000 |  | CCc1cc(-c2c[nH]c3ncc(-c4cnn(C)c4)cc23)nc(NC)n1 [Compound A63, {4-Ethyl-6-[5-(1-methyl-1H-pyrazol-4-yl)-1H-pyrrolo[2,3-b]pyridin-3-yl]-pyrimidin-2-yl}methylamine]
10 to 1000 |  | CCc1cc(-c2c[nH]c3ncc(-c4cnn(CC(=O)N5CCCCC5)c4)cc23)nc(NC)n1 [Compound A65, 2-{4-[3-(6-Ethyl-2-methylaminopyrimidin-4-yl)-1H-pyrrolo[2,3-b]pyridin-5-yl]-pyrazol-1-yl}-1-piperidin-1-ylethanone]
10 to 1000 |  | CCc1cc(-c2c[nH]c3ncc(-c4cnn(CC(=O)N5CCCC5)c4)cc23)nc(NC)n1 [Compound A66, 2-{4-[3-(6-Ethyl-2-methylaminopyrimidin-4-yl)-1H-pyrrolo[2,3-b]pyridin-5-yl]-pyrazol-1-yl}-1-pyrrolidin-1-ylethanone]
10 to 1000 |  | CCCCc1cc(-c2c[nH]c3ncc(-c4cnn(CCO)c4)cc23)nc(NC)n1 [Compound A67, 2-{4-[3-(6-Butyl-2-methylaminopyrimidin-4-yl)-1H-pyrrolo[2,3-b]pyridin-5-yl]-pyrazol-1-yl}ethanol]
10 to 1000 |  | CCc1cc(-c2c[nH]c3ncc(-c4cnn(CCO)c4)cc23)nc(NC)n1 [Compound A68, 2-{4-[3-(6-Ethyl-2-methylaminopyrimidin-4-yl)-1H-pyrrolo[2,3-b]pyridin-5-yl]-pyrazol-1-yl}ethanol]
10 to 1000 |  | CCc1cc(-c2c[nH]c3ncc(-c4cnn(C(C)C)c4)cc23)nc(OC)n1 [Compound A75, 3-(6-Ethyl-2-methoxypyrimidin-4-yl)-5-(1-isopropyl-1H-pyrazol-4-yl)-1H-pyrrolo[2,3-b]pyridine]
10 to 1000 |  | CC(C)Cn1cc(-c2cnc3[nH]cc(-c4cc(CCCN)nc(N)n4)c3c2)cn1 [Compound A84, 4-(3-Aminopropyl)-6-[5-(1-isobutyl-1H-pyrazol-4-yl)-1H-pyrrolo[2,3-b]pyridin-3-yl]pyrimidin-2-ylamine]
